According to US9546153B2, “Bicyclic heterocycle substituted pyridyl compounds useful as kinase modulators” (BRISTOL-MYERS SQUIBB COMPANY, priority 2012, dated 2017):
pEC50, pIC50: −log10 of the molar value. Read-outs that look alike come from different tables or passages of the source.

Tests used:
[1] = target: IRAK4 (Homo sapiens (Human), UniProt Q9NWZ3); assay: IRAK4 Inhibition Assay; format: biochemical; settings: ATP 500 μM; IRAK4 0.6 nM; 60 min at room temperature
Method: The assays were performed in U-bottom 384-well plates. […] The reaction was initiated by the combination of IRAK4 with substrates and test compounds. The reaction was incubated at room temperature for 60 min. and terminated by adding 45 μL of 35 mM EDTA to each sample. The reaction mixture was analyzed on the Caliper LABCHIP® 3000 (Caliper, Hopkinton, Mass.) by electrophoretic separation of the fluorescent substrate and phosphorylated product.

[2] = system: TLR2 induced IL-6 in peripheral blood mononuclear cells (PBMCs); assay: PBMC TLR2 Induced IL-6 Assay; format: cell-based, human; settings: for pIC50: read-out: Cell IC50; for pEC50: EC50 determinations are indicated with an asterisk, read-out: Cell EC50 (asterisk)
Summary of the method: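 Human PBMCs (250000 cells/well) in RPMI with 10% heat-inactivated FCS pre-treated with compound for 30 min at 37° C, then stimulated 5 h with 10 μg/ml lipoteichoic acid. Supernatant IL-6 measured by ELISA and reported as IC50 or EC50.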

[3] = human PBMCs, 10 μg/ml lipoteichoic acid for 5 hours, IL-6 by ELISA, value without asterisk
[4] = Homo sapiens, PBMC, 5 h, human PBMCs, 10 μg/ml lipoteichoic acid for 5 hours, IL-6 by ELISA, value without asterisk
[5] = Homo sapiens, PBMC, 5 h, human PBMCs, 10 μg/ml lipoteichoic acid for 5 hours, IL-6 by ELISA

Sequence of IRAK4 (Q9NWZ3 whole entry, species assumed): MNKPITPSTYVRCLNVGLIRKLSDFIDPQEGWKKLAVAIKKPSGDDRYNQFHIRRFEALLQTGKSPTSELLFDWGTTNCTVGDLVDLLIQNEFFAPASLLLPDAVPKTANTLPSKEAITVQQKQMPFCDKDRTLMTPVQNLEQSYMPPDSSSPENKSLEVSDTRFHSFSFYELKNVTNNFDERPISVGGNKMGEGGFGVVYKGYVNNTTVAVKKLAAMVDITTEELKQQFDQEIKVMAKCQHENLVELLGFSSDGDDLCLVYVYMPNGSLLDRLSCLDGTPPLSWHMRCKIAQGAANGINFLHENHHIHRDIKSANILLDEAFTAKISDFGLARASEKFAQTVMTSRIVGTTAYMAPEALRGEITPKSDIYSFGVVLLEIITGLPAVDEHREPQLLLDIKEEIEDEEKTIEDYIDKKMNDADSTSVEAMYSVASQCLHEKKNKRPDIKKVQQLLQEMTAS

| pIC50 [1] | SMILES | pIC50 [2, 3] | pIC50 [2, 4] | pEC50 [2, 5] | pIC50 ([2]; Homo sapiens, PBMC, 5 h) |
| --- | --- | --- | --- | --- | --- |
| 8.24 | CC(C)(O)[C@H](F)CNC(=O)c1cnc(Nc2ccc3ncsc3c2)cc1NC1C2CCCC21 (some centres unmarked) [Example 109] | 6.34 | – | – | – |
| 8.72 | CC1CCCC1Nc1cc(Nc2ccc3ncsc3c2)ncc1C(=O)NC[C@@H](F)C(C)(C)O (some centres unmarked) [Example 105] | 6.49 | – | – | – |
| 8.21 | Cc1cc2nc(Nc3cc(NC4CCC(F)C4)c(C(=O)NC[C@@H](F)C(C)(C)O)cn3)ccn2n1 (single isomer, unassigned) [Example 381] | – | 6.42 | – | – |
| 7.45 | CC1COCCC1Nc1cc(Nc2ccc3ncsc3c2)ncc1C(=O)NC[C@@H](F)C(C)(C)O (some centres unmarked) [Example 232] | 6.16 | – | – | – |
| 9.30 | CC(C)(O)[C@H](F)CNC(=O)c1cnc(Nc2ccc3ncsc3n2)cc1NC1CC1 [Example 308] | – | 6.84 | – | – |
| 8.32 | CC(C)(O)[C@H](F)CNC(=O)c1cnc(Nc2ccc3ncsc3c2)cc1N[C@H]1CCCC(O)C1 (some centres unmarked) [Example 328] | 6.31 | – | – | – |
| 8.42 | CC(C)(O)[C@H](F)CNC(=O)c1cnc(Nc2cc3scnc3cc2F)cc1NC1CCCOC1 (some centres unmarked) [Example 518] | 5.74 | – | – | – |
| 8.28 | CC(C)(O)[C@H](F)CNC(=O)c1cnc(Nc2ccc3ncsc3c2)cc1NC1CCC(O)C1 (some centres unmarked) [Example 38] | 6.37 | – | – | – |
| 8.33 | CC(C)(O)[C@H](F)CNC(=O)c1cnc(Nc2ccc3ncsc3c2)cc1N[C@H]1CCC(CCO)C1 (some centres unmarked) [Example 68] | 6.64 | – | – | – |
| 8.46 | CC(C)C(O)[C@H](F)CNC(=O)c1cnc(Nc2ccc3ncsc3c2)cc1NC1CC1 (some centres unmarked) [Example 25] | 7.22 | – | – | – |
| 8.16 | CC(C)Nc1cc(Nc2ccc3ncsc3c2)ncc1C(=O)NC[C@@H](F)C(C)(O)C(F)(F)F (some centres unmarked) [Example 18] | 6.57 | – | – | – |
| 8.59 | CC(C)(O)[C@H](F)CNC(=O)c1cnc(Nc2ccc3ncsc3c2)cc1NCCC1CC1 [Example 129] | – | 6.84 | – | – |
| 8.23 | CC(C)(O)C(F)(F)CNC(=O)c1cnc(Nc2ccc3ncsc3c2)cc1NC1CC1 [Example 170] | – | 6.32 | – | – |
| 8.44 | CCC(C)Nc1cc(Nc2ccc3ncsc3c2)ncc1C(=O)NC[C@@H](F)C(C)(C)O (some centres unmarked) [Example 137] | – | 6.28 | – | – |
| 8.44 | CC(C)(O)[C@H](F)CNC(=O)c1cnc(Nc2ccc3ncsc3c2)cc1NC1CCC(F)C1 (single isomer, unassigned) [Example 364, 6-(benzo[d]thiazol-6-ylamino)-N-(2-fluoro-3-hydroxy-3-methylbutyl)-4-(3-fluorocyclopentylamino)nicotinamide] | 7.04 | – | – | – |
| 8.31 | CC(O)([C@H](F)CNC(=O)c1cnc(Nc2ccc3ncsc3c2)cc1NC1CC1)C(F)(F)F (some centres unmarked) [Example 20] | 6.25 | – | – | – |
| 8.32 | CC(C)(O)[C@H](F)CNC(=O)c1cnc(Nc2ccn3nccc3c2)cc1NC1CC1 [Example 92] | – | 6.75 | – | – |
| 8.33 | CC(C)Nc1cc(Nc2ccc3ncsc3c2)ncc1C(=O)NC[C@@H](F)C(C)(O)C(F)(F)F (some centres unmarked) [Example 17] | – | 6.66 | – | – |
| 8.22 | CC(C)(O)[C@H](F)CNC(=O)c1cnc(Nc2cc3scnc3cc2F)cc1NC1CCCOC1 (some centres unmarked) [Example 517] | – | 5.89 | – | – |
| 8.15 | CC(C)(O)[C@H](F)CNC(=O)c1cnc(Nc2ccn3nccc3c2)cc1NC1CC(F)C1 (some centres unmarked) [Example 296] | – | 6.42 | – | – |
| 8.23 | CC(C)(O)[C@H](F)CNC(=O)c1cnc(Nc2ccc3ncccc3c2)cc1NC1CCCC1F (some centres unmarked) [Example 351] | – | 6.64 | – | – |

Second part, the compound before the results:

| SMILES | pIC50 [1] | pIC50 [2, 3] | pIC50 [2, 4] | pEC50 [2, 5] | pIC50 ([2]; Homo sapiens, PBMC, 5 h) |
| --- | --- | --- | --- | --- | --- |
| CC(C)(C)Nc1cc(Nc2ccn3nccc3c2)ncc1C(=O)NC[C@@H](F)C(C)(C)O [Example 291] | 8.15 | – | 6.55 | – | – |
| CC(C)(F)CNc1cc(Nc2ccn3ncc(F)c3n2)ncc1C(=O)NC[C@@H](F)C(C)(C)O [Example 257] | 8.51 | – | 6.49 | – | – |
| CC(C)Nc1cc(Nc2ccc3ncsc3c2)ncc1C(=O)NC1CCc2nnnn2CC1 (centres unmarked) [Example 527, 6-(benzo[d]thiazol-6-ylamino)-4-(isopropylamino)-N-(6,7,8,9-tetrahydro-5H-tetrazolo[1,5-a]azepin-7-yl)nicotinamide] | 8.11 | – | – | 6.49 | – |
| CCC(O)(CC)[C@H](F)CNC(=O)c1cnc(Nc2ccc3ncsc3c2)cc1NCC(C)(C)F [Example 317] | 8.77 | – | 6.43 | – | – |
| CC(C)Nc1cc(Nc2ccn3ncc(Cl)c3n2)ncc1C(=O)NC[C@@H](F)C(C)(C)O [Example 243] | 8.26 | 6.25 | – | – | – |
| CC(C)(O)C(F)(F)CNC(=O)c1cnc(Nc2ccc3nccn3n2)cc1NC1CC1 [Example 283] | 8.02 | – | 6.38 | – | – |
| CC(C)(O)[C@H](F)CNC(=O)c1cnc(Nc2ccc3ncc(C#N)cc3n2)cc1NC1CCC(F)(F)C1 (some centres unmarked) [Example 406] | 7.93 | 5.88 | – | – | – |
| CC(C)Nc1cc(Nc2ccc3cc(C#N)ccc3n2)ncc1C(=O)NC[C@@H](F)C(C)(C)O [Example 480] | 8.08 | – | – | 6.06 | – |
| CC(C)Nc1cc(Nc2ccc3ncsc3c2)ncc1C(=O)NCC[C@@H](C)NC(=O)CC1CCCOC1 (some centres unmarked) [Example 194] | 8.60 | – | 6.68 | – | – |
| CC(C)Nc1cc(Nc2ccc3ncsc3c2)ncc1C(=O)NCC[C@H](C)NC(=O)CC(C)(C)O [Example 179] | 7.79 | – | 6.27 | – | – |
| CN(C)CC(=O)NC12CCC(Nc3cc(Nc4ccc5ncsc5c4)ncc3C(=O)NC[C@@H](F)C(C)(C)O)(CC1)C2 [Example 398] | 8.46 | – | 6.52 | – | – |
| CC(C)(O)[C@H](F)CNC(=O)c1cnc(Nc2ccc3nccn3n2)cc1NC1CCOCC1 [Example 279] | 8.40 | – | 6.53 | – | – |
| CC(C)Nc1cc(Nc2ccc3ncsc3c2)ncc1C(=O)NCC[C@@H](C)NC(=O)CCCC(C)(C)O [Example 190] | 8.48 | – | 6.60 | – | – |
| CC(C)(F)CNc1cc(Nc2ccc3ncccc3n2)ncc1C(=O)NC[C@@H](F)C(C)(C)O [Example 134] | 8.06 | – | 6.35 | – | – |
| CC(C)(O)[C@H](F)CNC(=O)c1cnc(Nc2ccc3ncsc3n2)cc1NCC(F)(F)F [Example 310] | 8.72 | – | 6.76 | – | – |
| CC(C)Nc1cc(Nc2ccc3ncsc3c2)ncc1C(=O)N[C@H]1CC[C@H](C(N)=O)CC1 [Example 228] | 8.62 | – | 6.41 | – | – |
| CC(C)Nc1cc(Nc2ccn3ncc(Cl)c3n2)ncc1C(=O)NC[C@@H](F)C(C)(C)O [Example 262] | 8.54 | 6.85 | – | – | – |

| SMILES | pIC50 [1] | pIC50 [2, 3] | pIC50 [2, 4] | pEC50 [2, 5] | pIC50 ([2]; Homo sapiens, PBMC, 5 h) |
| --- | --- | --- | --- | --- | --- |
| CC(C)(O)[C@H](F)CNC(=O)c1cnc(Nc2ccn3nccc3n2)cc1NC12CCC(O)(CC1)C2 [Example 141] | 8.66 | – | 6.55 | – | – |
| Cc1cn2nc(Nc3cc(NC4CC4)c(C(=O)NC[C@@H](F)C(C)(C)O)cn3)ccc2n1 [Example 278] | 7.97 | – | 6.21 | – | – |
| CC(C)Nc1cc(Nc2ccc3ncsc3n2)ncc1C(=O)NC[C@@H](F)C(C)(C)O [Example 309] | 8.72 | – | 7.21 | – | – |
| CC(C)(O)[C@H](F)CNC(=O)c1cnc(Nc2ccc3ncsc3c2)cc1Nc1cccc(CO)c1 [Example 57] | 8.28 | – | 6.50 | – | – |
| CC(C)Nc1cc(Nc2nc3ccnn3cc2F)ncc1C(=O)NC1CCC(C(C)(C)O)CC1 (centres unmarked) [Example 457] | 8.47 | – | 5.81 | – | – |
| CC(C)(O)[C@H](F)CNC(=O)c1cnc(Nc2ncc3ncccc3n2)cc1NC1CCOCC1 [Example 371] | 8.22 | – | 6.22 | – | – |
| CC(C)C(O)C(F)CNC(=O)c1cnc(Nc2ccc3ncsc3c2)cc1NC(c1ccccc1)C(O)CO (centres unmarked) [Example 27] | 8.52 | – | 7.07 | – | – |
| CC(C)Nc1cc(Nc2ccc3ncsc3c2)ncc1C(=O)NCC[C@@H](C)NC(=O)CC1CCCCC1(F)F (some centres unmarked) [Example 188] | 8.60 | – | 6.29 | – | – |
| CC(=O)N[C@H]1CC[C@H](NC(=O)c2cnc(Nc3ccc4ncsc4c3)cc2N[C@H]2CCOC[C@@H]2F)CC1 [Example 511] | 8.38 | – | 6.21 | – | – |
| O=C(Nc1ccc(Cn2cncn2)cc1)c1cnc(Nc2ccc3ncsc3c2)cc1NC1CCCC1 [Example 156] | 8.00 | – | 6.30 | – | – |
| CC(C)Nc1cc(Nc2ccc3ncc(Cl)cc3n2)ncc1C(=O)NC[C@@H](F)C(C)(C)O [Example 374] | 8.51 | – | 6.57 | – | – |
| CC(C)Nc1cc(Nc2nc3scnc3cc2F)ncc1C(=O)NCC(F)(F)C(C)(C)O [Example 483] | 8.47 | – | 6.33 | – | – |
| CC(C)(O)[C@H](F)CNC(=O)c1cnc(Nc2ccn3nccc3c2)cc1NCC1CC1 [Example 290] | 7.94 | – | 6.22 | – | – |
| CC(C)Nc1cc(Nc2ccc3nnccc3c2)ncc1C(=O)NC[C@@H](F)C(C)(C)O [Example 119] | 7.66 | – | 6.23 | – | – |
| CC(C)Nc1cc(Nc2ccc3nccnc3c2)ncc1C(=O)NC[C@@H](F)C(C)(C)O [Example 55] | 8.23 | – | 6.46 | – | – |
| CC(C)Nc1cc(Nc2ccc3ncsc3c2)ncc1C(=O)NCC[C@@H](C)NC(=O)C1CCCC1 [Example 184] | 8.72 | – | – | – | 6.67 |
| CC(C)(O)[C@H](F)CNC(=O)c1cnc(Nc2ccn3nccc3c2)cc1NC1CCC(F)(F)C1 (some centres unmarked) [Example 299] | 8.77 | 6.38 | – | – | – |
